Reference: patent EP4813992A1, “POLYARYL DERIVATIVE AND USE THEREOF” (Hangzhou HealZen Therapeutics Co., Ltd., priority 2023, dated 2025)

How the values were obtained:
HPK1 kinase [1] = biological target: T1, HPK1 kinase (Homo sapiens, UniProt Q92918); assay: Activity of degrading HPK1 in Jurkat cells (Western blot, 24 h); assay type: cell-based; set-up: endogenous in cells; host or cells: Jurkat; details: HPK1 protein degradation
Protocol: The adjusted samples are added to 5*loading buffer, boiled at 100°C for 10 minutes, and then the samples are loaded after the temperature is returned to room temperature. • 4) Detection of samples: Electrophoresis is performed using 10% SDS-PAGE with a sample loading volume of 8 µL/well. After the membrane transfer is completed, the samples are blocked with 5% BSA at room temperature for 1 h. After the residual blocking solution is washed away with TBST, HPK1 and GAPDH antibodies are added for incubation overnight at 4°C. Washing is performed 3 more times with TBST on a shaker, 10 minutes each time. After washing is completed, the secondary antibody is added for incubation at room temperature for 1 hour; then, washing is performed 3 more times with TBST on a shaker, 10 minutes each time; finally, ECL exposure solution is used to develop and image the bands to detect changes in HPK1 protein.

HPK1/GLK = assay: Selectivity of degrading HPK1/GLK in Jurkat cells (Western blot, 24 h); assay type: cell-based; details: HPK1/GLK Fold = DC50 (HPK1) / DC50 (GLK)
Protocol: • 1) Cell plating: Cells are resuscitated, Jurkat cell lines in good growth condition are selected, and cells in the logarithmic growth phase are collected and counted; cell suspensions are seeded into 12 or 24-well plates (20W/well) and incubated overnight at 37°C in a 5% CO2 incubator. • 2) Preparation of compounds to be tested: The compounds to be tested are serially diluted with DMSO according to the experimental requirements and added to the corresponding cell wells, to be incubated at 37°C in a 5% CO2 incubator for 24 h. • 3) Preparation of samples: After the reaction of the compound to be tested is completed, the cells are collected in 1.5 mL EP tubes, and centrifuged at 1500 rpm for 5 min; after the supernatant is discarded, the cells are washed once with PBS, and the BCA protein is quantified and the concentration is adjusted. The adjusted samples are added to 5*loading buffer, boiled at 100°C for 10 minutes, and then the samples are loaded after the temperature is returned to room temperature. • 4) Detection of samples: Electrophoresis is performed using 10% SDS-PAGE with a sample loading volume of 10 µL/well. After the membrane transfer is completed, the samples are blocked with 5% skim milk at room temperature for 1 h. After the residual blocking solution is washed away with TBST, HPK1 and GLK antibodies are added for incubation overnight at 4°C. Washing is performed 3 more times with TBST on a shaker, 5 minutes each time. After washing is completed, the secondary antibody is added for incubation at room temperature in a shaker for 1 hour; then, washing is performed 3 more times with TBST on a shaker, 5 minutes each time; finally, the membrane is soaked in TBST and then subjected to chemiluminescence development. • 5) Data Processing: After the PVDF membrane is developed, the data are exported and plotted using Imang J, and the gray values of the protein bands are analyzed using Image J software; the DC50 curve is fitted using Graphpad Prism 9 software to obtain the results of the selectivity of the compound in degrading HPK1/GLK: HPK1/GLK Fold = DC50 (HPK1) / DC50 (GLK) . Table 3 Selectivity of the compounds of the invention in degrading HPK1/GLK

[2] = Pharmacokinetic properties in SD rats after gavage; assay type: in vivo; details: rat, po, 10 mg/kg, plasma
Protocol: The test compound is administered to SD rats by gavage at a dose of 10 mg/kg. Blood samples are collected at 0 h (before administration) and at 0.083, 0.25, 1, 2, 4, 6, 8, and 24 h after oral gavage administration. The samples are placed in anticoagulant tubes containing heparin sodium, and the mixture is thoroughly vortexed and centrifuged at 6000 rpm for 3 minutes. Plasma concentrations are determined by LC-MS/MS, and relevant pharmacokinetic parameters are calculated using Phoenix WinNonlin 8.2.0 pharmacokinetic software. Table 4 Pharmacokinetic properties of the compounds of the invention

HPK1 kinase [3] = biological target: T1, HPK1 kinase; assay: Lantha screen assay, inhibitory effect on HPK1 kinase; assay type: biochemical; details: initial compound concentration 1 µM
How it was run: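 Kinase pre-incubated with compound for 10 min at room temperature in 50 mM HEPES pH 7.5, 10 mM MgCl2, 4 mM DTT, 0.01% Tween-20, 0.01% BSA. Fluorescein-PKC substrate plus ATP then added for 90 min, stopped with antibody/EDTA for 60 min. Top concentration 1 µM; IC50 from four-parameter fit of inhibition vs log concentration.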

T1 sequence (Q92918 whole entry): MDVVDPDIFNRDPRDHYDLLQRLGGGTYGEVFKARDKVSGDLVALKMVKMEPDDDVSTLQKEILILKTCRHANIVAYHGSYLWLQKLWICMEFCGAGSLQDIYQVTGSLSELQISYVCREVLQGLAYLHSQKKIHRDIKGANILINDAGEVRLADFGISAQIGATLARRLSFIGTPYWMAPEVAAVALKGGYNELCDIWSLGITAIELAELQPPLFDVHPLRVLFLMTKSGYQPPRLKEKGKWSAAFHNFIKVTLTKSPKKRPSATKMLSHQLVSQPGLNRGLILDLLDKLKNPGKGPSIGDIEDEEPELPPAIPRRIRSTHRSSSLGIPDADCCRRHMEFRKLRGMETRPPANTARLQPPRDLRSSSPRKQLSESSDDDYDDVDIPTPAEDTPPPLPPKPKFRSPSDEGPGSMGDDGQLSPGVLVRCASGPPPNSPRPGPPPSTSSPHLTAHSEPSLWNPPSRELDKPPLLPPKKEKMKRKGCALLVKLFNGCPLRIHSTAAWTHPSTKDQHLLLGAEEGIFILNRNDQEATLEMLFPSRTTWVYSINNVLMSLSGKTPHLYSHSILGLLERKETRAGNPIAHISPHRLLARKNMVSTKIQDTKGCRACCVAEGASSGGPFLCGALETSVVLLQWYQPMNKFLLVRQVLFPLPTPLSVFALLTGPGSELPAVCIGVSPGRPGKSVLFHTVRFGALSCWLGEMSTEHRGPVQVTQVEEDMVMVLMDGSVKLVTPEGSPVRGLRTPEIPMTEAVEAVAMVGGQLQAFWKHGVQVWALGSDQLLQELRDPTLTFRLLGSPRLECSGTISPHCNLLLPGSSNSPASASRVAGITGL

SMILES	DC50 (HPK1 kinase [1]; class symbols) [µM]	HPK1/GLK Fold (HPK1/GLK)	AUC [2] [ng·h/mL]	IC50 (HPK1 kinase [3]) [µM]	DC50 (HPK1 kinase [1]; numeric values) [µM]
Cc1cc(-c2cnc3[nH]cc(-c4ccc(C(=O)N(C)C)cc4)c3n2)cc(C)c1C1=CCN(CC2CN(c3ccc(C(=O)NC4CCC(=O)NC4=O)nc3)C2)CC1 (stereo not shown) [compound 016]	< 0.01	++++ (1000≤Fold)	5000	< 0.01	
Cc1cc(-c2cnc3[nH]cc(-c4ccc(C(=O)N(C)C)cc4)c3n2)cc(C)c1C1=CCN(CC2CN(c3cc4c(cc3F)c(N3CCC(=O)NC3=O)nn4C)C2)CC1 [compound 062]		++++ (1000≤Fold)	9920	< 0.01	
Cc1cc(N2CC(CN3CC=C(c4c(C)cc(-c5cnc6[nH]cc(-c7ccc(C(=O)N(C)C)cc7)c6n5)cc4C)CC3)C2)ccc1N1CCC(=O)NC1=O [compound 014]	< 0.01	++++ (1000≤Fold)	11400	< 0.01	
Cc1cc(-c2cnc3[nH]cc(-c4ccc(C(=O)N(C)C)cc4)c3n2)cc(C)c1C1=CCN(CC2CN(c3ccc(OC4CCC(=O)NC4=O)cn3)C2)CC1 (stereo not shown) [compound 086]		++++ (1000≤Fold)	8500	< 0.01	
Cc1cc(N2CC(CN3CC=C(c4c(C)cc(-c5cnc6[nH]cc(-c7cnn(C8CCN(CC(F)F)CC8)c7)c6c5)cc4C)CC3)C2)ccc1N1CCC(=O)NC1=O [compound 110]			4070	< 0.01	0.0124
Cc1cc(-c2cnc3[nH]cc(-c4ccc(C(=O)N(C)C)cc4)c3n2)cc(C)c1C1=CCN(CC2CN(c3cnn(C4CCC(=O)NC4=O)c(=O)c3)C2)CC1 (stereo not shown) [compound 085]	< 0.01	++++ (1000≤Fold)	8530	< 0.01	
Cc1cc(-c2cnc3[nH]cc(-c4ccc(C(=O)N(C)C)cc4)c3n2)cc(C)c1C1=CCN(CC2CN(c3ccc(N4CCC(=O)NC4=O)c(F)c3)C2)CC1 [compound 049]	< 0.01	++++ (1000≤Fold)	9570	< 0.01	
Cc1cc(-c2c[nH]c3ncc(-c4cc(C)c(C5=CCN(CC6CN(c7ccc(N8CCC(=O)NC8=O)c(F)c7)C6)CC5)c(C)c4)nc23)c(C)s1 [compound 150]	< 0.01	++++ (1000≤Fold)	13100	< 0.01	
Cc1cc(-c2cnc3[nH]cc(-c4ccc(C(=O)N(C)C)cc4)c3n2)cc(C)c1C1=CCN(CC2CN(c3ccc(NC4CCC(=O)NC4=O)cc3F)C2)CC1 (stereo not shown) [compound 052]	< 0.01	++++ (1000≤Fold)	6300		
Cc1cc(-c2cnc3[nH]cc(-c4ccc(C(=O)N(C)C)cc4)c3n2)cc(C)c1C1=CCN(C2CN(c3ccc(C(=O)NC4CCC(=O)NC4=O)cn3)C2)CC1 (stereo not shown) [compound 011]		++++ (1000≤Fold)	8990	< 0.01	
COc1cc(-c2cnc3[nH]cc(-c4ccc(C(=O)N(C)C)cc4)c3n2)ccc1C1=CCN(CC2CN(c3ccc(N4CCC(=O)NC4=O)c(C)c3)C2)CC1 [compound 135]	< 0.01	++++ (1000≤Fold)	5480	< 0.01	
Cc1cc(-c2cnc3[nH]cc(-c4cnn5c4CCC5)c3n2)cc(C)c1C1=CCN(CC2CN(c3ccc(N4CCC(=O)NC4=O)c(F)c3)C2)CC1 [compound 170]	< 0.01	++++ (1000≤Fold)	12700	< 0.01	
Cc1cc(-c2cnc3[nH]cc(-c4ccc(C(=O)N(C)C)cc4)c3c2)cc(C)c1C1=CCN(CC2CN(c3ccc(N4CCC(=O)NC4=O)c(F)c3)C2)CC1 [compound 144]	< 0.01	++++ (1000≤Fold)	5750	< 0.01	
Cc1cc(-c2cnc3[nH]cc(-c4ccc(C(=O)N(C)C)cc4)c3n2)cc(C)c1C1=CCN(CC#Cc2cccc3c(C4CCC(=O)NC4=O)coc23)CC1 (stereo not shown) [compound 024]	< 0.01	++++ (1000≤Fold)	12000	< 0.01	
Cc1cc(-c2cnc3[nH]cc(-n4cc(CC(F)(F)F)cn4)c3n2)cc(C)c1C1=CCN(CC2CN(c3ccc(N4CCC(=O)NC4=O)c(F)c3)C2)CC1 [compound 162]	< 0.01	++++ (1000≤Fold)		< 0.01	
Cc1cc(-c2cnc3[nH]cc(-c4cnc5cc(F)ccn45)c3n2)cc(C)c1C1=CCN(CC2CN(c3ccc(N4CCC(=O)NC4=O)c(F)c3)C2)CC1 [compound 167]	< 0.01	++++ (1000≤Fold)		< 0.01	
Cc1cc(-c2cnc3[nH]cc(-c4cncc5c4ncn5C)c3n2)cc(C)c1C1=CCN(CC2CN(c3cc(F)c(C4CCC(=O)NC4=O)c(F)c3)C2)CC1 (stereo not shown) [compound 057]		++++ (1000≤Fold)	11300	< 0.01	
Cc1cc(-c2cnc3[nH]cc(-n4cc(C5CC5)cn4)c3n2)cc(C)c1C1=CCN(CC2CN(c3ccc(N4CCC(=O)NC4=O)c(F)c3)C2)CC1 [compound 160]	< 0.01	++++ (1000≤Fold)		< 0.01	
O=C1CCN(c2cc(C(=O)N3CCC(CC4CCN(c5ccc(-c6cnc7[nH]cc(-c8cnn(CC(F)(F)F)c8)c7n6)cn5)CC4)CC3)ccc2Cl)C(=O)N1 [Compound a, reference compound]			3850		
COCCCN(C)C(=O)c1ccc(-c2c[nH]c3ncc(-c4cc(C)c(C5=CCN(CC6CN(c7ccc(N8CCC(=O)NC8=O)c(C)c7)C6)CC5)c(C)c4)cc23)cc1 [compound 109]	< 0.01	++++ (1000≤Fold)		< 0.01	
Cc1cc(-c2cnc3[nH]cc(-c4ccc(C(=O)N(C)C)cc4)c3n2)cc(C)c1C1=CCN(CC2CN(c3ccc(C(=O)NC4CCC(=O)NC4=O)cc3)C2)CC1 (stereo not shown) [compound 081]	< 0.01	++++ (1000≤Fold)		< 0.01	
Cc1cc(-c2cnc3[nH]cc(-n4cc(F)cn4)c3n2)cc(C)c1C1=CCN(CC2CN(c3ccc(N4CCC(=O)NC4=O)c(F)c3)C2)CC1 [compound 163]	< 0.01	++++ (1000≤Fold)		< 0.01	
